Test results published in PubChem BioAssay (NCI).
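Assay format: 96-well plates, 48-hour exposure. TGI: concentration producing complete growth inhibition.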

Legend:
Assay in all cases: NCI tumour cell line growth inhibition, 48 h
786-0 renal = system: 786-0 renal
A498 renal = system: A498 renal
A549 NSCLC = system: A549 NSCLC
ACHN renal = system: ACHN renal
CAKI-1 renal = system: CAKI-1 renal
CCRF-CEM leukemia = system: CCRF-CEM leukemia
COLO 205 colon = system: COLO 205 colon
DLD-1 colon = system: DLD-1 colon
DMS 114 small cell lung = system: DMS 114 small cell lung
DMS 273 small cell lung = system: DMS 273 small cell lung
EKVX NSCLC = system: EKVX NSCLC
HCC-2998 colon = system: HCC-2998 colon
HL-60(TB) leukemia = system: HL-60(TB) leukemia
HOP-62 NSCLC = system: HOP-62 NSCLC
HOP-92 NSCLC = system: HOP-92 NSCLC
HT29 colon = system: HT29 colon
IGROV1 ovarian = system: IGROV1 ovarian
K-562 leukemia = system: K-562 leukemia
KM12 colon = system: KM12 colon
KM20L2 colon = system: KM20L2 colon
LOX IMVI melanoma = system: LOX IMVI melanoma
LXFL 529 NSCLC = system: LXFL 529 NSCLC
M14 melanoma = system: M14 melanoma
M19-MEL melanoma = system: M19-MEL melanoma
MALME-3M melanoma = system: MALME-3M melanoma
MOLT-4 leukemia = system: MOLT-4 leukemia
NCI-H226 lung = system: NCI-H226 lung
NCI-H23 lung = system: NCI-H23 lung
NCI-H460 lung = system: NCI-H460 lung
NCI-H522 lung = system: NCI-H522 lung
OVCAR-3 ovarian = system: OVCAR-3 ovarian
OVCAR-4 ovarian = system: OVCAR-4 ovarian
OVCAR-5 ovarian = system: OVCAR-5 ovarian
OVCAR-8 ovarian = system: OVCAR-8 ovarian
RPMI-8226 leukemia = system: RPMI-8226 leukemia
RXF 393 renal = system: RXF 393 renal
RXF-631 renal = system: RXF-631 renal
SF-268 CNS = system: SF-268 CNS
SF-295 CNS = system: SF-295 CNS
SF-539 CNS = system: SF-539 CNS
SK-MEL-2 melanoma = system: SK-MEL-2 melanoma
SK-MEL-28 melanoma = system: SK-MEL-28 melanoma
SK-MEL-5 melanoma = system: SK-MEL-5 melanoma
SK-OV-3 ovarian = system: SK-OV-3 ovarian
SN12C renal = system: SN12C renal
SNB-19 CNS = system: SNB-19 CNS
SNB-75 CNS = system: SNB-75 CNS
SNB-78 CNS = system: SNB-78 CNS
SW-620 colon = system: SW-620 colon
TK-10 renal = system: TK-10 renal
U251 CNS = system: U251 CNS
UACC-257 melanoma = system: UACC-257 melanoma
UO-31 renal = system: UO-31 renal
HCT-116 colon = system: HCT-116 colon
HCT-15 colon = system: HCT-15 colon
SR leukemia = system: SR leukemia
UACC-62 melanoma = system: UACC-62 melanoma

CC1=C(C(=O)Nc2cccc(Cl)c2)C(c2ccccc2F)C(C(=O)Nc2cccc(Cl)c2)=C(C)N1
TGI (786-0 renal): 32.2 µM
TGI (A498 renal): 38.6 µM
TGI (A549 NSCLC): 40.6 µM
TGI (ACHN renal): 46 µM
TGI (CAKI-1 renal): 35.9 µM
TGI (CCRF-CEM leukemia): 26.2 µM
TGI (COLO 205 colon): 26.3 µM
TGI (DLD-1 colon): 28.8 µM
TGI (DMS 114 small cell lung): 30.6 µM
TGI (DMS 273 small cell lung): 26.4 µM
TGI (EKVX NSCLC): 27.5 µM
TGI (HCC-2998 colon): 21 µM
TGI (HL-60(TB) leukemia): 18.7 µM
TGI (HOP-62 NSCLC): 31.3 µM
TGI (HOP-92 NSCLC): 8.7 µM
TGI (HT29 colon): 15.5 µM
TGI (IGROV1 ovarian): 47.3 µM
TGI (K-562 leukemia): 24.6 µM
TGI (KM12 colon): 21 µM
TGI (KM20L2 colon): 24.3 µM
TGI (LOX IMVI melanoma): 21.1 µM
TGI (LXFL 529 NSCLC): 23.4 µM
TGI (M14 melanoma): 18 µM
TGI (M19-MEL melanoma): 26.4 µM
TGI (MALME-3M melanoma): 31.8 µM
TGI (MOLT-4 leukemia): 14.7 µM
TGI (NCI-H226 lung): 26 µM
TGI (NCI-H23 lung): 26.5 µM
TGI (NCI-H460 lung): 24.1 µM
TGI (NCI-H522 lung): 23.1 µM
TGI (OVCAR-3 ovarian): 25.2 µM
TGI (OVCAR-4 ovarian): 21.3 µM
TGI (OVCAR-5 ovarian): 37.2 µM
TGI (OVCAR-8 ovarian): 46.9 µM
TGI (RPMI-8226 leukemia): 11.1 µM
TGI (RXF 393 renal): 22.4 µM
TGI (RXF-631 renal): 22.6 µM
TGI (SF-268 CNS): 36.8 µM
TGI (SF-295 CNS): 36.8 µM
TGI (SF-539 CNS): 30.4 µM
TGI (SK-MEL-2 melanoma): 27.1 µM
TGI (SK-MEL-28 melanoma): 23 µM
TGI (SK-MEL-5 melanoma): 29.5 µM
TGI (SK-OV-3 ovarian): 55.5 µM
TGI (SN12C renal): 23 µM
TGI (SNB-19 CNS): > 100 µM
TGI (SNB-75 CNS): 54.9 µM
TGI (SNB-78 CNS): 60.9 µM
TGI (SW-620 colon): 64.6 µM
TGI (TK-10 renal): 68.2 µM
TGI (U251 CNS): 37.7 µM
TGI (UACC-257 melanoma): 22.3 µM
TGI (UO-31 renal): 20.8 µM

COC1C2C=CC(C2)[C@H]1[N+](=O)[O-] (stereo partly drawn)
TGI (786-0 renal): > 100 µM
TGI (A498 renal): > 100 µM
TGI (A549 NSCLC): > 100 µM
TGI (ACHN renal): > 100 µM
TGI (CAKI-1 renal): > 100 µM
TGI (CCRF-CEM leukemia): > 100 µM
TGI (COLO 205 colon): > 100 µM
TGI (DLD-1 colon): > 100 µM
TGI (DMS 114 small cell lung): > 100 µM
TGI (DMS 273 small cell lung): > 100 µM
TGI (EKVX NSCLC): > 100 µM
TGI (HCC-2998 colon): > 100 µM
TGI (HCT-116 colon): > 100 µM
TGI (HCT-15 colon): > 100 µM
TGI (HL-60(TB) leukemia): > 100 µM
TGI (HOP-62 NSCLC): > 100 µM
TGI (HOP-92 NSCLC): > 100 µM
TGI (HT29 colon): > 100 µM
TGI (IGROV1 ovarian): > 100 µM
TGI (K-562 leukemia): > 100 µM
TGI (KM12 colon): > 100 µM
TGI (KM20L2 colon): > 100 µM
TGI (LOX IMVI melanoma): > 100 µM
TGI (LXFL 529 NSCLC): > 100 µM
TGI (M14 melanoma): > 100 µM
TGI (M19-MEL melanoma): > 100 µM
TGI (MALME-3M melanoma): > 100 µM
TGI (MOLT-4 leukemia): > 100 µM
TGI (NCI-H226 lung): > 100 µM
TGI (NCI-H23 lung): > 100 µM
TGI (NCI-H460 lung): > 100 µM
TGI (NCI-H522 lung): > 100 µM
TGI (OVCAR-3 ovarian): > 100 µM
TGI (OVCAR-4 ovarian): > 100 µM
TGI (OVCAR-5 ovarian): > 100 µM
TGI (OVCAR-8 ovarian): > 100 µM
TGI (RXF 393 renal): > 100 µM
TGI (RXF-631 renal): > 100 µM
TGI (SF-268 CNS): > 100 µM
TGI (SF-295 CNS): > 100 µM
TGI (SF-539 CNS): > 100 µM
TGI (SK-MEL-2 melanoma): > 100 µM
TGI (SK-MEL-5 melanoma): > 100 µM
TGI (SK-OV-3 ovarian): > 100 µM
TGI (SN12C renal): > 100 µM
TGI (SNB-19 CNS): > 100 µM
TGI (SNB-75 CNS): > 100 µM
TGI (SNB-78 CNS): > 100 µM
TGI (SR leukemia): > 100 µM
TGI (SW-620 colon): > 100 µM
TGI (TK-10 renal): > 100 µM
TGI (U251 CNS): > 100 µM
TGI (UACC-257 melanoma): > 100 µM
TGI (UACC-62 melanoma): > 100 µM
TGI (UO-31 renal): > 100 µM
